Measurements from patent publication US10800789B2, “Antiviral compounds” (Gilead Pharmasset LLC, priority 2012, dated 2020).
pEC50: −log10 of the molar value. Where two headings read alike, the source gives them in different places.

What was measured:
[1] = test system: stable HCV 1b RLuc replicon cells (dicistronic genotype 1b Con1 replicon); test: Renilla luciferase HCV replicon reporter assay, genotype 1b; assay type: cell-based; conditions: Hepatitis C virus, 72 h; for pEC50: stable 1b Con1 RLuc replicon cells, 72 hours, read-out: 1b
Outline: (§1)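 Antiviral EC50 was determined in HCV replicon cells (stable RLuc lines for 1a H77, 1b Con1, 2a JFH-1 with NS5A L31; J6 NS5A chimera with M31) treated 72 h with compound. Renilla luciferase was then quantified.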

[2] = test system: stable HCV 1a RLuc replicon cells (dicistronic genotype 1a H77 replicon); test: Renilla luciferase HCV replicon reporter assay, genotype 1a; assay type: cell-based; conditions: Hepatitis C virus, 72 h, stable 1a H77 RLuc replicon cells
Outline: as §1

[3] = test system: Q30R in genotype 1a NS5A (1a Pi-Rluc replicon, Huh-7-derived cured-51 cells); test: Replicon assay against resistance mutant 1a Q30R; assay type: cell-based, HCV; conditions: Hepatitis C virus; for pEC50: read-out: 1a Q30R; for EC50: read-out: 1a Q30R (nM)
Outline: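 Q30R introduced by site-directed mutagenesis into the 1a Pi-RLuc replicon; replicon RNA transiently transfected into cured-51 cells. Cells treated with 3-fold serially diluted compound for 72 h, then lysed and Renilla luciferase measured; EC50 by non-linear regression.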

[4] = test system: stable HCV 2a JFH-1 Rluc replicon cells (L31 present in NS5A); test: Renilla luciferase HCV replicon reporter assay, genotype 2a JFH-1; assay type: cell-based; conditions: for EC50: read-out: 2a JFH (nM), genotype 2a JFH-1 replicon (L31 in NS5A), stable cells
Outline: as §1

[5] = test system: NS5A chimeric genotype 2a JFH-1 replicon with genotype 2a J6 strain NS5A gene (M31 present); test: Replicon assay, genotype 2a J6 NS5A chimera; assay type: cell-based, HCV; conditions: for EC50: read-out: 2a J6 (t) (nM), genotype 2a J6 NS5A chimeric replicon (M31), transiently transfected (t) into Huh-Lunet cells
Outline: as §1

[6] = test system: NS5A chimeric genotype 2a JFH-1 replicon with genotype 2b MD2b-1 strain NS5A gene (M31 present); test: Replicon assay, genotype 2b NS5A chimera; assay type: cell-based, HCV
Outline: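 Cells carrying the stable or transiently transfected (Huh-Lunet) dicistronic RLuc replicons received 3-fold serial compound dilutions from 10 mM DMSO stocks. After 72 h, cells were lysed and Renilla luciferase read. DMSO served as the no-inhibition control and ITMN-191 above 100×EC50 as the positive control; EC50 by non-linear regression.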

[7] = test system: NS5A chimeric genotype 1b Con1 replicon with genotype 3a S52 strain NS5A gene; test: Replicon assay, genotype 3a NS5A chimera; assay type: cell-based, HCV
[8] = test system: NS5A chimeric genotype 1b Con1 replicon with genotype 4a ED43 strain NS5A gene; test: Replicon assay, genotype 4a NS5A chimera; assay type: cell-based, HCV; conditions: Hepatitis C virus; for EC50: read-out: 4a (s) (nM), genotype 4a NS5A chimeric replicon, stable replicon cells (s); for pEC50: read-out: 4a (s), (s), activity range
[9] = IV and PO single dose pharmacokinetic studies in SD rats; assay type: in vivo, male Sprague-Dawley (SD) rats; conditions: male SD rats, PO 2 mg/kg vs IV infusion 1 mg/kg; for bioavailability: Sprague-Dawley, rat, plasma, read-out: Rat % F
Outline: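 Fasted male Sprague-Dawley rats (250-300g, n=3/group) were given 1 mg/kg IV as a 30-min jugular infusion (5% ethanol/35% PEG 400/water pH 2.0) or 2 mg/kg by oral gavage (5% ethanol/55% PEG 400/citrate pH 2.2). Plasma was sampled to 24 h and analysed by LC/MS/MS. Non-compartmental parameters were derived, and %F was calculated from the oral/IV AUC ratio.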

[10] = Hepatitis C virus, read-out: 2a JFH, stable 2a JFH-1 Rluc replicon cells, L31 in NS5A, activity range
[11] = Hepatitis C virus, read-out: 2a J6 (t), transiently transfected (t) into Huh-Lunet cells, activity range
[12] = Hepatitis C virus, 2BS, read-out: 2b (s), stably replicating replicon cells (s), activity range
[13] = Hepatitis C virus, read-out: 2b (s) (nM), genotype 2b MD2b-1 NS5A chimeric replicon (M31), stably replicating replicon cells (s)
[14] = Hepatitis C virus, read-out: 2b (t) (nM), genotype 2b MD2b-1 NS5A chimeric replicon (M31), transiently transfected (t)
[15] = Hepatitis C virus, read-out: 2b (t), transiently transfected (t) into Huh-Lunet cells, activity range
[16] = Hepatitis C virus, read-out: 3a (s) (nM), genotype 3a NS5A chimeric replicon, stable replicon cells (s)
[17] = Hepatitis C virus, read-out: 3a (s), (s), activity range
[18] = Hepatitis C virus, read-out: 3a (t) (nM), genotype 3a NS5A chimeric replicon, transiently transfected (t)
[19] = Hepatitis C virus, read-out: 3a (t), transiently transfected (t) into Huh-Lunet cells, activity range

Row | Structure (SMILES) | pEC50 [1] | pEC50 [2] | pEC50 ([2]; activity range) | pEC50 [3] | EC50 [3] [nM] | EC50 ([4]; Hepatitis C virus) [nM] | pEC50 [4, 10] | EC50 ([5]; Hepatitis C virus) [nM] | pEC50 [5, 11] | pEC50 [6, 12] | EC50 [6, 13] [nM] | EC50 [6, 14] [nM] | pEC50 [6, 15] | EC50 [7, 16] [nM] | pEC50 [7, 17] | EC50 [8] [nM] | pEC50 [8] | bioavailability [9] [%] | EC50 [7, 18] [nM] | pEC50 [7, 19] | other results
1 | COC(=O)N[C@H](C(=O)N1[C@@H](C)CC[C@H]1c1ncc(-c2ccc3c(c2)COc2cc4c(ccc5nc([C@@H]6CC[C@H](C)N6C(=O)[C@@H](NC(=O)OC)[C@@H](C)OC)[nH]c54)cc2-3)[nH]1)C(C)C [FA, Methyl [(2S)-1-{(2S,5S)-2-[5-(2-{(2S,5S)-1-[N-(methoxycarbonyl)-O-methyl-L-threonyl]-5-methylpyrrolidin-2-yl}-1,11-dihydroisochromeno[4′,3′:6,7]naphtho[1,2-d]imidazol-9-yl)-1H-imidazol-2-yl]-5-methylpyrrolidin-1-yl}-3-methyl-1-oxobutan-2-yl]carbamate] | 10.85 | 10.96 | > 10.00 | > 10.00 | 0.046 | 0.014 | > 10.00 | 0.033 | > 10.00 | 9.00 to 10.00 | 0.13 | 0.036 | > 10.00 | 0.034 | > 10.00 | 0.011 | > 10.00 | 13.5 | – | – | –
2 | COC(=O)N[C@H](C(=O)N1[C@@H](C)CC[C@H]1c1ncc(-c2ccc3c(c2)COc2cc4c(ccc5nc([C@@H]6CC[C@H](C)N6C(=O)[C@@H](NC(=O)OC)C6CCOCC6)[nH]c54)cc2-3)[nH]1)C(C)C [FC, Methyl [(1 S)-2-[(2S,5S)-2-(9-{2-[(2S,5S)-1-{(2S)-2-[(methoxycarbonyl)amino]-3-methylbutanoyl}-5-methylpyrrolidin-2-yl]-1H-imidazol-5-yl}-1,11-dihydroisochromeno[4′,3′:6,7]naphtho[1,2-d]imidazol-2-yl)-5-methylpyrrolidin-1-yl]-2-oxo-1-(tetrahydro-2H-pyran-4-yl)ethyl]carbamate] | – | 10.85 | > 10.00 | > 10.00 | 0.031 | 0.011 | > 10.00 | 0.015 | > 10.00 | > 10.00 | 0.048 | 0.024 | > 10.00 | 0.031 | > 10.00 | 0.011 | > 10.00 | – | – | – | EC50 ([1]; read-out: 1b (nM), stable 1b Con1 RLuc replicon cells, 72 hours): 0.021 nM; Rat % F ([9]; oral bioavailability): 0%
3 | COC[C@H]1C[C@@H](c2nc(Cl)c(-c3ccc4c(c3)COc3cc5c(ccc6nc([C@@H]7CC[C@H](C)N7C(=O)[C@@H](NC(=O)OC)C(C)C)[nH]c65)cc3-4)[nH]2)N(C(=O)[C@H](NC(=O)OC)c2ccccc2)C1 [FY, Methyl {(1R)-2-[(2S,4S)-2-(4-chloro-5-{2-[(2S,5S)-1-{(2S)-2-[(methoxycarbonyl)amino]-3-methylbutanoyl}-5-methylpyrrolidin-2-yl]-1,11-dihydroisochromeno[4′,3′:6,7]naphtho[1,2-d]imidazol-9-yl}-1H-imidazol-2-yl)-4-(methoxymethyl)pyrrolidin-1-yl]-2-oxo-1-phenylethyl}carbamate] | 10.77 | 11.00 | > 10.00 | > 10.00 | 0.017 | 0.007 | > 10.00 | 0.005 | > 10.00 | > 10.00 | 0.034 | – | – | 0.029 | > 10.00 | 0.005 | > 10.00 | 13.5 | – | – | –
4 | COC[C@H]1C[C@@H](c2nc(C3CC3)c(-c3ccc4c(c3)COc3cc5c(ccc6nc([C@@H]7CC[C@H](C)N7C(=O)[C@@H](NC(=O)OC)C(C)C)[nH]c65)cc3-4)[nH]2)N(C(=O)[C@H](NC(=O)OC)c2ccccc2)C1 [FZ, Methyl {(1R)-2-[(2S,4S)-2-(4-cyclopropyl-5-{2-[(2S,5S)-1-{(2S)-2-[(methoxycarbonyl)amino]-3-methylbutanoyl}-5-methylpyrrolidin-2-yl]-1,11-dihydroisochromeno[4′,3′:6,7]naphtho[1,2-d]imidazol-9-yl}-1H-imidazol-2-yl)-4-(methoxymethyl)pyrrolidin-1-yl]-2-oxo-1-phenylethyl}carbamate] | 10.51 | 10.72 | > 10.00 | > 10.00 | 0.048 | – | > 10.00 | – | – | – | – | – | – | – | – | 0.025 | > 10.00 | 18.5 | – | – | pEC50 ([4]; read-out: 2a JFH, genotype 2a JFH-1 replicon (L31 in NS5A), stable cells): 10.60; pEC50 ([5]; read-out: 2a J6 (t), genotype 2a J6 NS5A chimeric replicon (M31), transiently transfected (t) into Huh-Lunet cells): 10.39; pEC50 ([5]; read-out: 2a J6 (t), transiently transfected (t) into Huh-Lunet cells, activity range): > 10.00; pEC50 ([6]; read-out: 2b (s), genotype 2b MD2b-1 NS5A chimeric replicon (M31), stably replicating replicon cells (s)): 10.00; pEC50 ([6]; read-out: 2b (s), stably replicating replicon cells (s), activity range): 9.00 to 10.00; pEC50 ([7]; read-out: 3a (s), (s), activity range): > 10.00; pEC50 ([7]; read-out: 3a (s), genotype 3a NS5A chimeric replicon, stable replicon cells (s)): 10.01
5 | CC[C@H]1CC[C@@H](c2ncc(-c3ccc4c(c3)COc3cc5c(ccc6nc([C@@H]7CC[C@H](C)N7C(=O)[C@@H](NC(=O)OC)C(C)C)[nH]c65)cc3-4)[nH]2)N1C(=O)[C@@H](NC(=O)OC)C1CCOCC1 [HQ] | 10.57 | 10.66 | > 10.00 | > 10.00 | 0.031 | 0.024 | > 10.00 | 0.088 | > 10.00 | 9.00 to 10.00 | 0.233 | 0.079 | > 10.00 | 0.076 | > 10.00 | 0.02 | > 10.00 | 34.3 | 0.049 | > 10.00 | –
6 | COC(=O)N[C@H](C(=O)N1[C@@H](C)CC[C@H]1c1ncc(-c2ccc3c(c2)COc2cc4c(ccc5nc([C@@H]6C[C@@H]7CCC[C@@H]7N6C(=O)[C@@H](NC(=O)OC)C6CCOCC6)[nH]c54)cc2-3)[nH]1)C(C)C [IA] | 10.62 | 10.82 | > 10.00 | > 10.00 | 0.024 | 0.021 | > 10.00 | 0.024 | > 10.00 | > 10.00 | 0.062 | 0.033 | > 10.00 | 0.052 | > 10.00 | 0.019 | > 10.00 | 21.8 | 0.055 | > 10.00 | –
